Laboratory results: ChEMBL document CHEMBL6078685, “Potential COX-2 inhibitors modulating NF-κB/MAPK signaling pathways: Design, synthesis and evaluation of anti-inflammatory activity of Pterostilbene-carboxylic acid derivatives with an oxime ether moiety” (Bioorg Med Chem, 2025)

Key:
RAW264.7 [1] = assay: Inhibition of LPS-induced NO release in mouse RAW264.7 cells at 20 uM preincubated with compound for 48 hrs followed by LPS addition and measured after 24 hrs by nitric oxide assay relative to control; assay type: functional; conditions: time 72 hrs
RAW264.7 [2] = assay: Cytotoxicity against mouse RAW264.7 cells assessed as reduction in cell viability at 20 uM incubated for 48 hrs by MTT method; assay type: toxicity, cell-based; conditions: raw264.7, 48 h
RAW264.7 [3] = assay: Antiinflammatory activity against mouse RAW264.7 cells assessed as decrease in LPS-induced TNF-alpha release preincubated for 3 hrs followed by LPS addition for 30 mins by Western blotting analysis; assay type: functional, cell-based; conditions: dose 4-16 µM
RAW264.7 [4] = assay: Inhibition of LPS-induced NO release in mouse RAW264.7 cells preincubated with compound for 48 hrs followed by LPS addition and measured after 24 hrs by nitric oxide assay; assay type: functional, cell-based
RAW264.7 [5] = assay: Downregulation of iNOS expression in LPS-induced mouse RAW264.7 cells preincubated for 3 hrs followed by LPS addition for 30 mins by Western blotting analysis; assay type: functional, cell-based; conditions: time 3.5 hrs
RAW264.7 [6] = assay: Antiinflammatory activity against mouse RAW264.7 cells assessed as decrease in LPS-induced IIL-1beta release preincubated for 3 hrs followed by LPS addition for 30 mins by Western blotting analysis; assay type: functional, cell-based; conditions: dose 4-16 µM, time 3.5 hrs
RAW264.7 [7] = assay: cells; conditions: Mus musculus
Description: Antiinflammatory activity against mouse RAW264.7 cells assessed as inhibition of LPS-induced IIL-1beta secretion pretreated with LPS for 3 hrs followed by compound addition and measured after 24 hrs by ELISA

RAW264.7 [8] = assay: Downregulation of COX-2 expression in LPS-induced mouse RAW264.7 cells preincubated for 3 hrs followed by LPS addition for 30 mins by Western blotting analysis; assay type: functional, cell-based; conditions: time 3.5 hrs
RAW264.7 [9] = assay: cells; conditions: Mus musculus; remark: listed apart in the source
Description: Antiinflammatory activity against mouse RAW264.7 cells assessed as inhibition of LPS-induced TNF-alpha secretion pretreated with LPS for 3 hrs followed by compound addition and measured after 24 hrs by ELISA

RAW264.7 [10] = assay: cells; conditions: Mus musculus; remark: listed apart in the source
Description: Antiinflammatory activity against mouse RAW264.7 cells assessed as inhibition of LPS-induced IIL-6 secretion pretreated with LPS for 3 hrs followed by compound addition and measured after 24 hrs by ELISA

RAW264.7 [11] = assay: Antiinflammatory activity against mouse RAW264.7 cells assessed as decrease in LPS-induced IIL-6 release preincubated for 3 hrs followed by LPS addition for 30 mins by Western blotting analysis; assay type: functional, cell-based; conditions: dose 4-16 µM, time 3.5 hrs

SMILES	inhibition at 20 µM (RAW264.7 [1]) [%]	Activity (RAW264.7 [2])	also measured
CCOC(=O)COc1ccc(/C=C/c2cc(OC)cc(OC)c2/C=N/OCc2ccc(Cl)cc2)cc1	29	Non-toxic	
COc1cc(/C=C/c2ccc(OCC(=O)NCCCO)cc2)c(/C=N/OCc2ccc(F)cc2)c(OC)c1	86.7	Non-toxic	Activity (RAW264.7 [3]): Dose-dependent-effect; IC50 (RAW264.7 [4]): 9.87 µM; Activity (RAW264.7 [5]): Dose-dependent-effect; Activity (RAW264.7 [6]): Dose-dependent-effect; IC50 (RAW264.7 [7]): 7.36 µM; Activity (RAW264.7 [8]): Dose-dependent-effect; IC50 (RAW264.7 [9]): 9.14 µM; IC50 (RAW264.7 [10]): 6.76 µM; Activity (RAW264.7 [11]): Dose-dependent-effect
CCNC(=O)COc1ccc(/C=C/c2cc(OC)cc(OC)c2/C=N/OCc2ccccc2)cc1	71.3	Non-toxic	IC50 (RAW264.7 [4]): 12.3 µM
CCCCCC(=O)OCCCNC(=O)COc1ccc(/C=C/c2cc(OC)cc(OC)c2/C=N/OCc2ccc(F)cc2)cc1	33.1	Non-toxic	
COc1cc(/C=C/c2ccc(OCC(=O)NCCCO)cc2)c(/C=N/OCc2ccc(Cl)c(F)c2)c(OC)c1	61	Non-toxic	IC50 (RAW264.7 [4]): 17.4 µM
COc1cc(/C=C/c2ccc(OCC(=O)O)cc2)c(/C=N/OCc2ccc(C(F)(F)F)cc2)c(OC)c1	21.8	Non-toxic	
CCOC(=O)COc1ccc(/C=C/c2cc(OC)cc(OC)c2/C=N/OCc2ccc(C(F)(F)F)cc2)cc1	18.6	Non-toxic	
CCCC(=O)OCCCNC(=O)COc1ccc(/C=C/c2cc(OC)cc(OC)c2/C=N/OCc2ccc(F)cc2)cc1	47.1	Non-toxic	
CCNC(=O)COc1ccc(/C=C/c2cc(OC)cc(OC)c2/C=N/OCc2ccc(Cl)cc2)cc1	49.2	Non-toxic	
COc1cc(/C=C/c2ccc(OCC(=O)O)cc2)c(/C=N/OCc2ccc(Cl)cc2)c(OC)c1	24.8	Non-toxic	
CCNC(=O)COc1ccc(/C=C/c2cc(OC)cc(OC)c2/C=N/OCc2ccc(F)cc2)cc1	68.5	Non-toxic	IC50 (RAW264.7 [4]): 14.6 µM
CCCCO/N=C/c1c(/C=C/c2ccc(OCC(=O)OCC)cc2)cc(OC)cc1OC	17.2	Non-toxic	
COc1cc(/C=C/c2ccc(OCC(=O)O)cc2)c(/C=N/OCc2ccc(Br)c(F)c2)c(OC)c1	25.8	Non-toxic	
Cc1ccc(-c2cc(C(F)(F)F)nn2-c2ccc(S(N)(=O)=O)cc2)cc1 [CELECOXIB]	29.4		
CCOC(=O)COc1ccc(/C=C/c2cc(OC)cc(OC)c2/C=N/OCc2ccc(Br)c(F)c2)cc1	29.3	Non-toxic	
COc1cc(/C=C/c2ccc(OCC(=O)O)cc2)c(/C=N/OCc2ccc(Cl)c(F)c2)c(OC)c1	23.8	Non-toxic	
CCOC(=O)COc1ccc(/C=C/c2cc(OC)cc(OC)c2/C=N/OCc2ccc(F)cc2)cc1	28.6	Non-toxic	

SMILES	inhibition at 20 µM (RAW264.7 [1]) [%]	Activity (RAW264.7 [2])	also measured
COc1cc(/C=C/c2ccc(OCC(=O)O)cc2)c(/C=N/OCc2ccc(F)cc2)c(OC)c1	26.1	Non-toxic	
CCOC(=O)COc1ccc(/C=C/c2cc(OC)cc(OC)c2/C=N/OCc2ccc(C)cc2)cc1	20	Non-toxic	
CCOC(=O)COc1ccc(/C=C/c2cc(OC)cc(OC)c2/C=N/OCc2ccc(Br)cc2)cc1	19.5	Non-toxic	
COc1cc(/C=C/c2ccc(OCC(=O)O)cc2)c(/C=N/OCc2ccccc2)c(OC)c1	25.2	Non-toxic	
CCNC(=O)COc1ccc(/C=C/c2cc(OC)cc(OC)c2/C=N/OCc2ccc(Cl)c(F)c2)cc1	40.6	Non-toxic	
CCCCCCCC(=O)OCCCNC(=O)COc1ccc(/C=C/c2cc(OC)cc(OC)c2/C=N/OCc2ccc(F)cc2)cc1	20.8	Non-toxic	
CCOC(=O)COc1ccc(/C=C/c2cc(OC)cc(OC)c2/C=N/OCc2ccccc2)cc1	37.8	Non-toxic	
C#CCO/N=C/c1c(/C=C/c2ccc(OCC(=O)O)cc2)cc(OC)cc1OC	22.2	Non-toxic	
COc1cc(/C=C/c2ccc(OCC(=O)NCCCO)cc2)c(/C=N/OCc2ccc(Cl)cc2)c(OC)c1	64.6	Non-toxic	IC50 (RAW264.7 [4]): 18.1 µM
COc1cc(/C=C/c2ccc(OCC(=O)O)cc2)c(/C=N/OCc2ccc(Br)cc2)c(OC)c1	13.7	Non-toxic	
CCOC(=O)COc1ccc(/C=C/c2cc(OC)cc(OC)c2/C=N/OCc2ccc(Cl)c(F)c2)cc1	28.1	Non-toxic	
COc1cc(/C=C/c2ccc(OCC(=O)O)cc2)c(/C=N/OCc2ccc(C)cc2)c(OC)c1	18.9	Non-toxic	
CCCCO/N=C/c1c(/C=C/c2ccc(OCC(=O)O)cc2)cc(OC)cc1OC	20.2	Non-toxic	
CCNC(=O)COc1ccc(/C=C/c2cc(OC)cc(OC)c2/C=N/OCc2ccc(Br)c(F)c2)cc1	42.1	Non-toxic	
COc1cc(/C=C/c2ccc(OCC(=O)NCCCO)cc2)c(/C=N/OCc2ccc(Br)c(F)c2)c(OC)c1	48	Non-toxic	
C#CCO/N=C/c1c(/C=C/c2ccc(OCC(=O)OCC)cc2)cc(OC)cc1OC	21.8	Non-toxic	
COc1cc(/C=C/c2ccc(OCC(=O)NCCCO)cc2)c(/C=N/OCc2ccccc2)c(OC)c1	34.7	Non-toxic	
